Results on seven compounds are retold here after patent US11753407B2, “Compounds for treating spinal muscular atrophy” (PTC Therapeutics, Inc., priority 2012, dated 2023).

For series [1], the system named is SMN2 minigene mRNA (SMN2-A minigene) in HEK293H cells. Briefly: SMN2 minigene mRNA splicing RT-qPCR assay in cultured cells. Type of series: cell-based, human. As to conditions: Homo sapiens, HEK293-H; concentration increasing full length SMN2 mRNA 1.5-fold relative to vehicle-treated cells; HEK293H cells with SMN2-A minigene, 24 hours, 7-point concentration data; read-out: EC1.5x for production of full length SMN2 mRNA. An outline of the steps: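 Potency reflects the concentration that lifts full-length SMN2 minigene mRNA 1.5-fold above vehicle in stably transfected HEK293H cells after 24 h of treatment. Transcript abundance came from RT-qPCR as (1+E)^−Ct, normalized to GAPDH; endogenous SMN1/SMN2 are not detected.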
On the technique in general: In qPCR the cycle at which signal appears reflects the starting amount.

Series [2] deals with Smn protein in SMA patient fibroblast cells (GM03813). Briefly: Smn protein assay in cultured cells (SMN HTRF). Type of series: cell-based, human. As to conditions: SMA patient fibroblast cells, 48 hours; for EC1.5x for Smn protein expression: 7-point concentration curve, SMN HTRF, concentration producing 1.5 times Smn protein vs DMSO vehicle control; for maximum fold (Fold) increase of Smn protein: 7-point concentration data, fold relative to vehicle control. The method in brief: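 Smn protein abundance in treated SMA fibroblasts was measured by HTRF after 48 h compound exposure. The reported EC1.5× is the concentration producing 1.5 times vehicle Smn levels.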
A general note: In TR-FRET formats the signal depends on donor and acceptor labels being close together.

The melting point is the temperature of the solid-liquid transition. With `CCN1CCN(c2ccc3nc(-c4cc(CO)c5nc(C)cn5c4)cc(=O)n3c2)CC1` [Compound 678, 7-(4-ethylpiperazin-1-yl)-2-[8-(hydroxymethyl)-2-methylimidazo[1,2-a]pyridin-6-yl]-4H-pyrido[1,2-a]pyrimidin-4-one], the melting point fell in the range of 258 to 262 °C. Also, in series [1], the EC (1.5-fold increase) was less than 0.1 µM. In series [2], the “EC1.5x for Smn protein expression” value was “**** (an EC1.5x≤0.3 μM is indicated by four stars (****))” and the “maximum fold (Fold) increase of Smn protein” value (from here on “maximum fold (Fold) increase”) was “***** (a fold increase >1.65 is indicated by five stars (*****))”.
Take `Cc1cn2nc(-c3cc(=O)n4cc(N5CCC(N(C)C)CC5)ccc4n3)cc2c(C)n1` [Compound 339, 7-[4-(dimethylamino)piperidin-1-yl]-2-(4,6-dimethylpyrazolo[1,5-a]pyrazin-2-yl)-4H-pyrido[1,2-a]pyrimidin-4-one]: the melting point was 208 to 210 °C. Also, in series [1], the EC (1.5-fold increase) was less than 0.1 µM. In addition, in series [2], the “EC1.5x for Smn protein expression” value was “**** (an EC1.5x≤0.3 μM is indicated by four stars (****))” and the “maximum fold (Fold) increase” value is listed as “***** (a fold increase >1.65 is indicated by five stars (*****))”.
`CCN1CCN(c2ccc3nc(-c4cc5c(C6CC6)nc(C)cn5n4)cc(=O)n3c2)CC1` [Compound 685, 2-(4-cyclopropyl-6-methylpyrazolo[1,5-a]pyrazin-2-yl)-7-(4-ethylpiperazin-1-yl)-4H-pyrido[1,2-a]pyrimidin-4-one] displayed a melting point of 236 to 238 °C. Besides, in series [1], the EC (1.5-fold increase) is 0.1 to 0.3 µM. In series [2], the “EC1.5x for Smn protein expression” value was “** (an EC1.5× between >1 μM and ≤3 μM is indicated by two stars (**))”; the “maximum fold (Fold) increase” value is “**** (a fold increase between >1.5 and ≤1.65 is indicated by four stars (****))”.
`Cc1cn2nc(-c3cc(=O)n4cc(N5C[C@@H]6C[C@H]5CN6C)ccc4n3)cc2c(C)n1` [Compound 400, 2-(4,6-dimethylpyrazolo[1,5-a]pyrazin-2-yl)-7-[(1S,4S)-5-methyl-2,5-diazabicyclo[2.2.1]hept-2-yl]-4H-pyrido[1,2-a]pyrimidin-4-one]: the melting point was 188 to 191 °C. In series [1], the EC (1.5-fold increase) lay within 0.1 to 0.3 µM. Also, in series [2], the “EC1.5x for Smn protein expression” value is “*** (an EC1.5× between >0.3 μM and ≤1 μM is indicated by three stars (***))”; the “maximum fold (Fold) increase” value was “**** (a fold increase between >1.5 and ≤1.65 is indicated by four stars (****))”.
`Cc1cn2cc(-c3cc(=O)n4cc(N5CCN6CCC[C@H]6C5)ccc4n3)cc(Cl)c2n1` [Compound 293, 2-(8-chloro-2-methylimidazo[1,2-a]pyridin-6-yl)-7-[(8aS)-hexahydropyrrolo[1,2-a]pyrazin-2(1H)-yl]-4H-pyrido[1,2-a]pyrimidin-4-one]: the melting point was in the range of 269 to 275 °C. Moreover, in series [1], the EC (1.5-fold increase) is less than 0.1 µM. In series [2], the “EC1.5x for Smn protein expression” value is reported as “**** (an EC1.5x≤0.3 μM is indicated by four stars (****))” and the “maximum fold (Fold) increase” value is “***** (a fold increase >1.65 is indicated by five stars (*****))”.
Take `COc1ccc(-c2cc(=O)n3cc(N4CCCNCC4)cc(C)c3n2)cc1OC` [Compound 238, 7-(1,4-diazepan-1-yl)-2-(3,4-dimethoxyphenyl)-9-methyl-4H-pyrido[1,2-a]pyrimidin-4-one]: the melting point lay within 160 to 177 °C. Also, the EC (1.5-fold increase) in series [1] was in the range of 0.3 to 1 µM. Further, the “maximum fold (Fold) increase” value in series [2] was “** (a fold increase between >1.2 and ≤1.35 is indicated by two stars (**))”.
Compound `CCc1cc(-c2cc(=O)n3cc(N4CCN5CCC[C@@H]5C4)ccc3n2)cn2cc(C)nc12` [Compound 794, 2-(8-ethyl-2-methylimidazo[1,2-a]pyridin-6-yl)-7-[(8aR)-hexahydropyrrolo[1,2-a]pyrazin-2(1H)-yl]-4H-pyrido[1,2-a]pyrimidin-4-one] had a melting point of 231 to 235 °C. Moreover, in series [1], the EC (1.5-fold increase) is less than 0.1 µM. Further, in series [2], the “EC1.5x for Smn protein expression” value is recorded as “**** (an EC1.5x≤0.3 μM is indicated by four stars (****))” and the “maximum fold (Fold) increase” value is “***** (a fold increase >1.65 is indicated by five stars (*****))”.
